Patent US10294202B2, “Pyrrolidinones as herbicides” (FMC Corporation, priority 2013, dated 2019)

Key:
arrowleaf sida = assay: Test E preemergence herbicide test; type: in vivo, Sida rhombifolia; set-up: key: 0 = no effect, 100 = complete control
Excerpt: (§1) Seeds of plant species selected from corn (Zea mays), soybean (Glycine max), velvetleaf (Abutilon theophrasti), lambsquarters (Chenopodium album), wild poinsettia (Euphorbia heterophylla), pigweed, palmer (palmer pigweed, Amaranthus palmeri), waterhemp (common waterhemp, Amaranthus rudis), surinam grass (Brachiaria decumbens), crabgrass, large (large crabgrass, Digitaria sanguinalis), crabgrass, Brazil (Brazilian crabgrass, Digitaria horizontalis), panicum, fall (fall panicum, Panicum dichotomiflorum), foxtail, giant (giant foxtail, Setaria faberii), foxtail, green (green foxtail, Setaria viridis), goosegrass (Eleusine indica), johnsongrass (Sorghum halepense), ragweed (common ragweed, Ambrosia elatior), barnyardgrass (Echinochloa crus-galli), sandbur (southern sandbur, Cenchrus echinatus), arrowleaf […] rhombifolia), ryegrass, Italian (Italian ryegrass, Lolium multiflorum), dayflower, VA (Virginia dayflower, Commelina virginica), field bindweed (Convolvulus arvensis), morningglory (Ipomoea coccinea), nightshade (eastern black nightshade, Solanum ptycanthum), kochia (Kochia scoparia), nutsedge, yellow (yellow nutsedge, Cyperus esculentus), cocklebur (common cocklebur, Xanthium strumarium), smartweed (ladysthumb smartweed, Polygonum Persicaria) and beggarticks (hairy beggarticks, Bidens pilosa), were planted into a silt loam soil and treated preemergence with test chemicals formulated in a non-phytotoxic solvent mixture which included a surfactant. Treated plants and controls were maintained in a greenhouse for 21 days, after which time all species were compared to controls and visually evaluated. Plant response ratings, summarized in Table E, are based on a scale of 0 to 100 where 0 is no effect and 100 is complete control. A dash (-) response means no test result.

crabgrass, large = assay: Test E preemergence herbicide test; type: in vivo, Digitaria sanguinalis; set-up: key: 0 = no effect, 100 = complete control
Excerpt: as §1

barnyardgrass = assay: Test F flood (paddy) test; type: in vivo, Echinochloa crus-galli; details: 21 d, scale 0-100
Summary of the method: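 Pots of sterilized Tama silt loam (35:50:15 sand:silt:clay, 2.6% organic matter) were sown so crop and weeds reached the 2.0–2.5-leaf stage; greenhouse 30/27 °C, 16-h photoperiod. Pots flooded to 3 cm, compound applied into paddy water, depth maintained. Visual rating vs untreated controls after 21 d, 0–100 scale.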

Russian thistle = assay: Test D pre-/postemergence herbicide test; type: in vivo, Salsola kali; details: for Plant response rating: Postemergence, Russian Thistle, scale 0 to 100; for Plant response rating, Russian Thistle: Preemergence, scale 0 to 100 (0 no effect, 100 complete control)
Summary of the method: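 Greenhouse pre- and postemergence screen with surfactant-containing non-phytotoxic solvent formulations. Silt loam soil served for preemergence application, and peat/vermiculite medium for postemergence application at 2–18 cm height. Visual 0–100 control ratings versus controls were recorded 7 to 21 days later.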

pigweed = assay: Test D pre-/postemergence herbicide test; type: in vivo, Amaranthus retroflexus; details: for Plant response rating: Postemergence, Pigweed, scale 0 to 100; for Plant response rating, Pigweed: Preemergence, scale 0 to 100 (0 no effect, 100 complete control)
Excerpt: Seeds of plant species selected from bluegrass (annual bluegrass, Poa annua), blackgrass (Alopecurus myosuroides), canarygrass (littleseed canarygrass, Phalaris minor), chickweed (common chickweed, Stellaria media), galium (catchweed bedstraw, Galium aparine), bromegrass, downy (downy bromegrass, Bromus tectorum), field poppy (Papaver rhoeas), field violet (Viola arvensis), foxtail, green (green foxtail, Setaria viridis), deadnettle (henbit deadnettle, Lamium amplexicaule), ryegrass, Italian (Italian ryegrass, Lolium multiflorum), kochia (Kochia scoparia), lambsquarters (Chenopodium album), oilseed rape (Brassica napus), pigweed (Amaranthus retroflexus), chamomile (scentless chamomile, Matricaria inodora), Russian thistle (Salsola kali), speedwell (bird's-eye speedwell, Veronica persica), barley, spring (spring barley, Hordeum vulgare), wheat, spring (spring wheat, Triticum aestivum), buckwheat, wild (wild buckwheat, Polygonum convolvulus), mustard, wild (wild mustard, Sinapis arvensis), oat, wild (wild oat, Avena fatua), radish, wild (wild radish, Raphanus raphanistrum), […]), barley, winter (winter barley, Hordeum vulgare), and wheat, winter (winter wheat, Triticum aestivum) were planted into a silt loam soil and treated preemergence with test chemicals formulated in a non-phytotoxic solvent mixture which included a surfactant. At the same time, these species were planted in pots containing Redi-Earth® planting medium (Scotts Company, 14111 Scottslawn Road, Marysville, Ohio 43041) comprising spaghnum peat moss, vermiculite, wetting agent and starter nutrients and treated with postemergence applications of the test chemicals formulated in the same manner. Plants ranged in height from 2 to 18 cm (1- to 4-leaf stage). Treated plants and controls were maintained in a controlled growth environment for 7 to 21 days after which time all species were compared to controls and visually evaluated. Plant response ratings, summarized in Table D, are based on a scale of 0 to 100 where 0 is no effect and 100 is complete control. A dash (-) response means no test result.

Row | SMILES | Plant response rating, Arrowleaf Sida (arrowleaf sida; 31 g ai/ha) | Plant response rating, Arrowleaf Sida (arrowleaf sida; 62 g ai/ha) | Plant response rating, Arrowleaf Sida (arrowleaf sida; 125 g ai/ha) | Plant response rating, Arrowleaf Sida (arrowleaf sida; 250 g ai/ha) | Plant response rating, Crabgrass, Large (crabgrass, large; 62 g ai/ha) | Plant response rating, Crabgrass, Large (crabgrass, large; 125 g ai/ha) | Plant response rating, Crabgrass, Large (crabgrass, large; 250 g ai/ha) | Plant response rating, Barnyardgrass (barnyardgrass; 125 g ai/ha) | Plant response rating, Barnyardgrass (barnyardgrass; 250 g ai/ha) | Plant response rating, Barnyardgrass (barnyardgrass; 500 g ai/ha) | Plant response rating, Crabgrass, Large (crabgrass, large; 31 g ai/ha) | Plant response rating (Russian thistle; 31 g ai/ha) | Plant response rating (Russian thistle; 62 g ai/ha) | Plant response rating (Russian thistle; 125 g ai/ha) | Plant response rating (Russian thistle; 250 g ai/ha) | Plant response rating (pigweed; 31 g ai/ha) | Plant response rating (pigweed; 62 g ai/ha) | Plant response rating (pigweed; 125 g ai/ha) | Plant response rating (pigweed; 250 g ai/ha) | Plant response rating, Pigweed (pigweed; 62 g ai/ha) | other results
1 | O=C1NCC(c2ccc(Cl)c(Cl)c2)C1C(=O)Nc1ccccc1F (racemic) [Compound 14] | 0 | 0 | 0 | 0 | 25 | 90 | 90 |  |  |  |  |  |  |  |  |  |  |  |  |  | Plant response rating, Arrowleaf Sida (arrowleaf sida; 16 g ai/ha): 0; Plant response rating, Crabgrass, Large (crabgrass, large; 16 g ai/ha): 0
2 | O=C1NCC(c2ccc(F)c(F)c2)C1C(=O)Nc1cccc(F)c1F (racemic) [Compound 101] |  |  |  |  |  |  |  | 85 | 85 | 90 |  |  |  |  |  |  |  |  |  |  | Plant response rating, Barnyardgrass (barnyardgrass; 64 g ai/ha): 60
3 | O=C1NCC(c2ccc(C(F)(F)F)cc2)C1C(=O)Nc1cccc(F)c1F (racemic) [Compound 202] | 0 | 30 | 70 | 80 | 98 | 98 | 98 |  |  |  | 98 | 30 | 30 | 30 | 35 | 75 | 75 | 75 | 80 | 80 | Plant response rating, Russian Thistle (Russian thistle; 62 g ai/ha): 20; Plant response rating, Russian Thistle (Russian thistle; 125 g ai/ha): 35; Plant response rating, Russian Thistle (Russian thistle; 31 g ai/ha): 15; Plant response rating, Russian Thistle (Russian thistle; 250 g ai/ha): 40; Plant response rating, Pigweed (pigweed; 125 g ai/ha): 90; Plant response rating, Pigweed (pigweed; 31 g ai/ha): 75; Plant response rating, Pigweed (pigweed; 250 g ai/ha): 90
4 | O=C1NCC(c2cccc(C(F)F)c2)C1C(=O)Nc1ccccc1F (racemic) [Compound 210] |  |  |  |  |  |  |  | 75 | 100 | 100 |  |  |  |  |  |  |  |  |  |  | 
5 | O=C1NCC(c2ccc(OC(F)F)cc2)C1C(=O)Nc1cccc(F)c1F (racemic) [Compound 350] | 0 | 0 | 20 | 50 | 70 | 98 | 98 |  |  |  | 50 |  |  |  |  |  |  |  |  |  | 
6 | O=C1NCCC1C(=O)N(c1ccc(F)c(F)c1)c1ccccc1F (centres unmarked) [Compound 5, N-(3,4-difluorophenyl)-N-(2-fluorophenyl)-2-oxo-3-pyrrolidinecarboxamide] |  |  |  |  |  |  |  | 55 | 65 | 75 |  |  |  |  |  |  |  |  |  |  | Plant response rating, Barnyardgrass (barnyardgrass; 1000 g ai/ha): 90; Plant response rating, Barnyardgrass (barnyardgrass; 2000 g ai/ha): 90
7 | O=C1NCC(c2ccc(C(F)(F)F)cc2)C1C(=O)Nc1cccc(F)c1F (centres unmarked) [Compound 80, N-(2,3-difluorophenyl)-2-oxo-4-[4-(trifluoromethyl)phenyl]-3-pyrrolidinecarboxamide] | 0 | 0 | 0 | 10 | 95 | 95 | 95 |  |  |  | 90 | 20 | 30 | 25 | 35 | 40 | 70 | 70 | 75 | 10 | Plant response rating, Arrowleaf Sida (arrowleaf sida; 16 g ai/ha): 0; Plant response rating, Crabgrass, Large (crabgrass, large; 16 g ai/ha): 50; Plant response rating, Pigweed (pigweed; 125 g ai/ha): 20; Plant response rating, Pigweed (pigweed; 31 g ai/ha): 5; Plant response rating, Pigweed (pigweed; 250 g ai/ha): 45
8 | O=C1NCC(c2ccc(C(F)(F)F)cc2)C1C(=O)Nc1ccccc1F (centres unmarked) [Compound 231] |  |  |  |  |  |  |  |  |  |  |  | 20 | 35 | 35 | 35 | 20 | 35 | 35 | 45 | 50 | Plant response rating, Russian Thistle (Russian thistle; 62 g ai/ha): 5; Plant response rating, Russian Thistle (Russian thistle; 125 g ai/ha): 15; Plant response rating, Russian Thistle (Russian thistle; 31 g ai/ha): 0; Plant response rating, Russian Thistle (Russian thistle; 250 g ai/ha): 30; Plant response rating, Pigweed (pigweed; 125 g ai/ha): 60; Plant response rating, Pigweed (pigweed; 31 g ai/ha): 50; Plant response rating, Pigweed (pigweed; 250 g ai/ha): 80
9 | CN1CC(c2ccc(F)c(F)c2)C(C(=O)Nc2cccc(F)c2F)C1=O (centres unmarked) [Compound 303] |  |  |  |  |  |  |  | 100 | 100 | 100 |  |  |  |  |  |  |  |  |  |  | Plant response rating, Barnyardgrass (barnyardgrass; 62 g ai/ha): 100
